Paper PMC11571207, “Stereorandomized Oncocins with Preserved Ribosome Binding and Antibacterial Activity” (Journal of Medicinal Chemistry, 2024)
Values after ≈ are worked out from the molar mass of the structure shown. Where two headings read alike, the source gives them in different places. Non-standard residues stand in square brackets, D forms with d. Residues, ends and D or L forms follow the SMILES beside them. No end group written: not given here.

Key:
E. cloacae = assay: microbe, parasite or virus in culture; settings: for MIC E. cloacae, 12.5% MHB: 12.5% MHB pH 7.4; for MIC E. cloacae, 12.5% MHB / MIC E. cloacae, full MHB: 16–20 h at 37 °C; for MIC E. cloacae, full MHB: full MHB pH 7.4; for MIC E. cloacae: supplement CSV
Description: (§1) Minimum inhibitory concentration assay
(§2) Antimicrobial activity was assayed against P. aeruginosa PAO1, K. pneumoniae NCTC418, E. coli W3110, A. baumannii ATCC 19606, methicillin-resistant S. aureus COL (MRSA), and for selected peptides on P. aeruginosa PA14 and the polymyxin-B-resistant derivative PA14 2P4, as well as the clinical isolates ZEM-1A and ZEM9A, K. pneumoniae OXA-48, S. aureus Newman, Enterobacter cloacae and Burkholderia cenocepacia. The minimal inhibitory concentration (MIC) was determined by using broth microdilution method. A colo ny of bacteria was picked and grown in Luria-Bertani (LB) medium overnight at 37°C. For E. coli BW25113 sbmA::kan the medium was supplemented with 25 mg/L of kanamycin. The next day, the culture was then regrown in LB medium to log phase (OD600 = 0.6 to 0.8), which lasted approximately 4 h, and diluted to an OD600 of 0.022 in the desired medium. Stock solutions of 1 mg/mL of the samples were prepared in sterilized milliQ water and diluted to the beginning concentration of 64 μg/mL in 300 μL Mueller Hinton (MH)-medium. The diluted samples were added to first well of 96-well microtiter plate (TPP, untreated, Faust Laborbedarf, AG, Schaffhausen) and diluted serially by ½. Finally, 4 μL of the bacterial suspension was inoculated into the sample solutions (150 μL/well) with a final inoculation of about 5∙10^5 CFU/mL. The plates were then incubated at 37°C for 15-18h. For each assay, sterility (broth only) and growth control (broth with bacterial inoculum, without antibiotics) were checked with two columns in the plate. The next day, 15 μL of 3-(4,5-dimethylthiazol-2-yl)-2,5-diphenyltetrazolium bromide (MTT) was added to each well of the plate, such a way that MIC was defined as the lowest concentration of the peptide that inhibited visible growth of the tested

K. pneumoniae OXA-48 = assay: microbe, parasite or virus in culture; settings: for MIC K. pneumoniae OXA-48, 12.5% MHB / MIC K. pneumoniae OXA-48, full MHB: carbapenem-resistant, 16–20 h at 37 °C; for MIC K. pneumoniae OXA-48, 12.5% MHB: 12.5% MHB pH 7.4; for MIC K. pneumoniae OXA-48, full MHB: full MHB pH 7.4; for MIC K. pneumoniae OXA-48: supplement CSV
Description: as §1, §2

[1] = tested on: P. aeruginosa PA14 2P4 (pmrB); assay: microbe, parasite or virus in culture; settings: for MIC P. aeruginosa PA14 2P4 (pmrB), 12.5% MHB: 12.5% MHB pH 7.4; for MIC P. aeruginosa PA14 2P4: supplement CSV
Description: as §1, §2

P. aeruginosa PA14 = assay: microbe, parasite or virus in culture; settings: for MIC P. aeruginosa PA14, 12.5% MHB: 12.5% MHB pH 7.4; for MIC P. aeruginosa PA14, 12.5% MHB / MIC P. aeruginosa PA14, full MHB: 16–20 h at 37 °C, two different duplicate MIC determinations; for MIC P. aeruginosa PA14, full MHB: full MHB pH 7.4; for MIC P. aeruginosa PA14: supplement CSV
Description: as §1, §2

P. aeruginosa ZEM-1A = assay: microbe, parasite or virus in culture; settings: for MIC P. aeruginosa ZEM-1A, 12.5% MHB: 12.5% MHB pH 7.4; for MIC P. aeruginosa ZEM-1A: supplement CSV
Description: as §1, §2

P. aeruginosa ZEM9A = assay: microbe, parasite or virus in culture; settings: for MIC P. aeruginosa ZEM9A, 12.5% MHB / MIC P. aeruginosa ZEM9A, full MHB: clinical isolate, 16–20 h at 37 °C; for MIC P. aeruginosa ZEM9A, 12.5% MHB: 12.5% MHB pH 7.4; for MIC P. aeruginosa ZEM9A, full MHB: full MHB pH 7.4; for MIC P. aeruginosa ZEM9A: supplement CSV
Description: as §1, §2

[2] = tested on: P. aeruginosa PA14 4.13 (phoQ); settings: for MIC P. aeruginosa PA14 4.13 (phoQ), 12.5% MHB / MIC P. aeruginosa PA14 4.13 (phoQ), full MHB: polymyxin B resistant strain, 16–20 h at 37 °C; for MIC P. aeruginosa PA14 4.13 (phoQ), 12.5% MHB: 12.5% MHB pH 7.4; for MIC P. aeruginosa PA14 4.13 (phoQ), full MHB: full MHB pH 7.4; for MIC P. aeruginosa PA14 4.13: supplement CSV
[3] = polymyxin B resistant strain, 16–20 h at 37 °C
[4] = clinical isolate, 16–20 h at 37 °C, cells marked c: single measurement (in duplicates)

Row | Compound | MIC E. cloacae, 12.5% MHB (E. cloacae) [mg/L] | MIC E. cloacae, full MHB (E. cloacae) [mg/L] | MIC E. cloacae (E. cloacae; 12.5% MH pH 7.4) [mg/L] | MIC E. cloacae (E. cloacae; full MH pH 7.4) [mg/L] | MIC K. pneumoniae OXA-48, 12.5% MHB (K. pneumoniae OXA-48) [mg/L] | MIC K. pneumoniae OXA-48, full MHB (K. pneumoniae OXA-48) [mg/L] | MIC K. pneumoniae OXA-48 (K. pneumoniae OXA-48; 12.5% MH pH 7.4) [mg/L] | MIC K. pneumoniae OXA-48 (K. pneumoniae OXA-48; full MH pH 7.4) [mg/L] | MIC P. aeruginosa PA14 2P4 (pmrB), 12.5% MHB [1, 3] [mg/L] | MIC P. aeruginosa PA14 2P4 ([1]; 12.5% MH pH 7.4) [mg/L] | MIC P. aeruginosa PA14, 12.5% MHB (P. aeruginosa PA14) [mg/L] | MIC P. aeruginosa PA14, full MHB (P. aeruginosa PA14) [mg/L] | MIC P. aeruginosa PA14 (P. aeruginosa PA14; 12.5% MH pH 7.4) [mg/L] | MIC P. aeruginosa PA14 (P. aeruginosa PA14; full MH pH 7.4) [mg/L] | MIC P. aeruginosa ZEM-1A, 12.5% MHB (P. aeruginosa ZEM-1A; [4]) [mg/L] | MIC P. aeruginosa ZEM-1A (P. aeruginosa ZEM-1A; 12.5% MH pH 7.4) [mg/L] | MIC P. aeruginosa ZEM9A, 12.5% MHB (P. aeruginosa ZEM9A) [mg/L] | MIC P. aeruginosa ZEM9A, full MHB (P. aeruginosa ZEM9A) [mg/L] | MIC P. aeruginosa ZEM9A (P. aeruginosa ZEM9A; 12.5% MH pH 7.4) [mg/L] | MIC P. aeruginosa ZEM9A (P. aeruginosa ZEM9A; full MH pH 7.4) [mg/L] | further results
1 | CC[C@H](C)[C@H](NC(=O)[C@@H](CCCNC(=N)N)NC(=O)[C@H](CCCNC(=N)N)NC(=O)[C@@H]1CCCN1C(=O)[C@@H]1CCCN1C(=O)[C@H](CCCNC(=N)N)NC(=O)[C@@H]1CCCN1C(=O)[C@H](CCCNC(=N)N)NC(=O)[C@@H]1CCCN1C(=O)[C@H](CC(C)C)NC(=O)[C@H](Cc1ccc(O)cc1)NC(=O)[C@@H]1CCCN1C(=O)[C@@H]1CCCN1C(=O)[C@H](CCCCN)NC(=O)[C@H](CC(=O)O)NC(=O)[C@@H](N)C(C)C)C(=O)N[C@@H](Cc1ccc(O)cc1)C(=O)N[C@@H](CC(N)=O)C(=O)N[C@H](CCCNC(=N)N)C(N)=O [Onc112, reference compound] (H-VDKPPYLPRPRPPR[dR]IYN[dR]-NH2) | 1 (≈ 0.418 µM) | 2 (≈ 0.837 µM) | 1 (≈ 0.418 µM) | 2 (≈ 0.837 µM) | 1 (≈ 0.418 µM) | 8 (≈ 3.35 µM) | 1 (≈ 0.418 µM) | 8 (≈ 3.35 µM) | 4 to 8 | 4 to 8 | 16 (≈ 6.69 µM) | > 32 | 16 (≈ 6.69 µM) | >32 | 8 (≈ 3.35 µM) | 8 (≈ 3.35 µM) | 8 (≈ 3.35 µM) | > 64 | 8 (≈ 3.35 µM) | >64 | MIC P. aeruginosa ZEM-1A, full MHB (P. aeruginosa ZEM-1A; clinical isolate, full MHB pH 7.4, 16–20 h at 37 °C, cells marked c: single measurement (in duplicates)): 32 mg/L (≈ 13.4 µM); MIC P. aeruginosa ZEM-1A (P. aeruginosa ZEM-1A; full MH pH 7.4): 32 mg/L (≈ 13.4 µM); MIC P. aeruginosa PA14 4.13 (phoQ), 12.5% MHB [2]: 16 mg/L (≈ 6.69 µM); MIC P. aeruginosa PA14 4.13 (phoQ), full MHB [2]: > 32 mg/L; MIC P. aeruginosa PA14 4.13 ([2]; 12.5% MH pH 7.4): 16 mg/L (≈ 6.69 µM); MIC P. aeruginosa PA14 4.13 ([2]; full MH pH 7.4): >32 mg/L
2 | VDKPPYLPRPRPPRRIYNR-NH2 [L-Onc, reference compound] | 1 | 32 | 1 | 32 | 2 | 32 | 2 | 32 | 16 | 16 | 32 | > 64 | 32 | >64 | 8 to 16 | 8 to 16 | 32 | > 64 | 32 | >64 | MIC P. aeruginosa PA14 2P4 (pmrB), full MHB ([1]; polymyxin B resistant strain, full MHB pH 7.4, 16–20 h at 37 °C): > 64 mg/L; MIC P. aeruginosa PA14 2P4 ([1]; full MH pH 7.4): >64 mg/L; MIC P. aeruginosa PA14 4.13 (phoQ), 12.5% MHB [2]: 16 mg/L; MIC P. aeruginosa PA14 4.13 (phoQ), full MHB [2]: > 64 mg/L; MIC P. aeruginosa PA14 4.13 ([2]; 12.5% MH pH 7.4): 16 mg/L; MIC P. aeruginosa PA14 4.13 ([2]; full MH pH 7.4): >64 mg/L
